In patent US12378206B2, “Heteroaryl butanoic acid derivatives” (NOVARTIS AG, priority 2013, dated 2025):
Read-outs that look alike come from different tables or passages of the source.

What was measured:
human LTA4H = molecular target: T1, human LTA4H (Homo sapiens, UniProt P09960); assay: Human LTA4H enzyme assay (Arg-AMC surrogate substrate, fluorescence); type: biochemical; conditions: read-out: ArgAMC IC50
T1 sequence (P09960 1-611): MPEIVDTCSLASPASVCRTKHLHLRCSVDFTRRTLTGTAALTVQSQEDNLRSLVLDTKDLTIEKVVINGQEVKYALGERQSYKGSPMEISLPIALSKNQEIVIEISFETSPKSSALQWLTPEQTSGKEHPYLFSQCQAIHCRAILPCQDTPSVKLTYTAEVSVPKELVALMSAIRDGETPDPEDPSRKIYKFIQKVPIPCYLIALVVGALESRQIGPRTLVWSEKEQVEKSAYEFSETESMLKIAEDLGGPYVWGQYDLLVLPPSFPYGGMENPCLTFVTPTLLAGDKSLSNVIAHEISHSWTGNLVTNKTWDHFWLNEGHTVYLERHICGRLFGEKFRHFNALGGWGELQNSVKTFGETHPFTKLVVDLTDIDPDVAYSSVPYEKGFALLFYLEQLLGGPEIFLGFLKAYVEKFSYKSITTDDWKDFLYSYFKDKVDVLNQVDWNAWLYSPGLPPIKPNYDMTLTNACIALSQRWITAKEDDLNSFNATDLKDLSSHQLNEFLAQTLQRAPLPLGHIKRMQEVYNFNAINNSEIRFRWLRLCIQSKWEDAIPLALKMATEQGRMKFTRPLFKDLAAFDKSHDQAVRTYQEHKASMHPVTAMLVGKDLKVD
Description: Leukotriene A4 hydrolase (LTA4H) catalyzes the vinylogous hydrolysis of the epoxide, leukotriene A4 (LTA4) into the pro-inflammatory mediator LTB4.
For compound testing, compounds are delivered as 10 mM stock solutions in 90% DMSO (10% water) in matrix tubes. […] The enzyme compound mixture is incubated at room temperature for 15 minutes prior to the addition of 50 μL substrate solution. A final substrate concentration of 600 μM, which is around the KM value of Arg-AMC, at a final enzyme concentration of 9 nM is chosen. Upon addition of the substrate, the plate is immediately placed in a fluorescence reader and the fluorescence is measured every 10 minutes for 60 minutes using the filter setting λexcitation=380 nm and λemission=460 nm. […] Raw data is converted to rate (moles per minute) using the AMC calibration curve calculated from the AMC standards. The data is analyzed in GraphPad Prism (GraphPad software Inc.) using non-linear regression to determine IC50 values of LTA4H inhibitors.

[1] = system: LTB4 biosynthesis in human whole blood; assay: Human whole blood assay (hWB): inhibition of LTB4 biosynthesis after A23187 stimulation, ELISA; type: cell-based
Description: Compounds are tested in a human whole blood assay (hWB) to test their ability to inhibit LTB4 biosynthesis in a human cellular system. To this end, fresh blood is collected in heparinized vacutainers by venipuncture from volunteers. Blood is diluted 1:3 with RPMI (Roswell Park Memorial Institute) medium and aliquots of 200 μL are transferred to 96-well round bottom cell culture plates. For compound testing, compounds are delivered as 10 mM stock solutions in 90% DMSO in matrix tubes. […] 4 μL of compound dilution or vehicle is added to 200 μL of blood and incubated for 15 min at 37° C. in a humidified incubator. Then blood is stimulated with 10 μg/ml calcium ionophore A23187 (Sigma) or equal volume DMSO (control) and incubated for an additional 15 min at 37° C. in a humidified incubator. Incubation is terminated by centrifugation at 300 g for 10 min at 22° C. Plasma supernatant is taken and transferred to a 96 well plate for eicosanoid determination by ELISA (Assay designs) according to the manufacturer's protocol after 1:20 dilution in assay buffer. The data is analyzed in GraphPad Prism (GraphPad software Inc.) using non-linear regression to determine IC50 values of LTA4H inhibitors.

LTB4 release = assay: Murine PD assay: ex vivo A23187-stimulated LTB4 release in blood after p.o. dosing; set-up: species or system female C57BL/6 mice; conditions: Mus musculus, po, read-out: PD effect [%] inhibition of LTB4 release
Description: LTA4H inhibitor compounds or vehicle control (30% PEG200 (70%), 5% Glucose) is applied per os (p.o.) in a dose of 0.3 mg/kg to female C57BL/6 mice (Charles River France). Three hours after application of compound, mice are terminally bled and blood is collected in heparinized tubes. Collected blood is diluted 1:3 in RPMI medium, added in 96-well round bottom cell culture plates and incubated with 10 μg/ml calcium ionophore A23187 (Sigma) or equal volume DMSO (control) for 15 min at 37° C. in a humidified incubator. Incubation is terminated by centrifugation at 300 g for 10 min at 22° C. Plasma supernatant is taken, diluted 1:10 in assay buffer and transferred to a 96 well plate for eicosanoid determination by ELISA (Assay designs) according to the manufacturer's protocol.

[2] = human whole blood diluted 1:3, 10 μg/ml calcium ionophore A23187, LTB4 by ELISA, read-out: hWB IC50
[3] = 0.3 mg/kg p.o., female C57BL/6 mice, blood taken 3 hours after application, ex vivo A23187 stimulation, versus vehicle control
[4] = Homo sapiens, read-out: hWB IC50 (nM)

Structure (SMILES) | IC50 (human LTA4H) | IC50 [1, 2] | inhibition at 0.3 mg/kg (LTB4 release; [3]) | IC50 [1, 4] | inhibition at 0.3 mg/kg (LTB4 release; 3 h)
N[C@H](CC(=O)O)Cn1nnc(-c2cccc(Oc3ccc(Cl)cc3)c2)n1 [Example 5, (R)-3-amino-4-(5-(3-(4-chlorophenoxy)phenyl)-2H-tetrazol-2-yl)butanoic acid] | 3 nM | 396 nM | – | – | –
N[C@H](CC(=O)O)Cn1nnc(-c2ccc(Oc3ccc(F)c(Cl)c3)cc2)n1 [Example 8, (R)-3-amino-4-(5-(4-(3-chloro-4-fluorophenoxy)phenyl)-2H-tetrazol-2-yl)butanoic acid] | 3 nM | 282 nM | – | – | –
Cc1ccc(Oc2ccc(-c3nnn(C[C@H](N)CC(=O)O)n3)cc2)cc1 [Example 9, (R)-3-amino-4-(5-(4-(p-tolyloxy)phenyl)-2H-tetrazol-2-yl)butanoic acid] | ≤ 2 nM | 402 nM | – | – | –
N[C@@H](CC(=O)O)Cn1nnc(-c2cccc(Oc3ccccc3)c2)n1 [Example 10, (S)-3-amino-4-(5-(3-phenoxyphenyl)-2H-tetrazol-2-yl)butanoic acid] | 4 nM | 214 nM | – | – | –
N[C@H](CC(=O)O)Cn1nnc(-c2cccc(OCCc3ccccc3)c2)n1 [Example 13, (R)-3-amino-4-(5-(3-phenethoxyphenyl)-2H-tetrazol-2-yl)butanoic acid] | ≤ 2 nM | 86 nM | 55% | – | –
N[C@H](CC(=O)O)Cn1nnc(-c2ccc(OCc3ccccc3)cc2)n1 [Example 15, (R)-3-amino-4-(5-(4-(benzyloxy)phenyl)-2H-tetrazol-2-yl)butanoic acid] | ≤ 2 nM | – | – | 81 nM | 49%
N[C@H](CC(=O)O)Cn1nnc(-c2cccc(OCc3ccccc3)c2)n1 [Example 16, (R)-3-amino-4-(5-(3-(benzyloxy)phenyl)-2H-tetrazol-2-yl)butanoic acid] | 3 nM | – | – | 165 nM | 9%
CCCCOc1ccc(-c2nnn(C[C@H](N)CC(=O)O)n2)cc1 [Example 17, (R)-3-amino-4-(5-(4-butoxyphenyl)-2H-tetrazol-2-yl)butanoic acid] | 4 nM | – | – | 183 nM | 47%
N[C@H](CC(=O)O)Cn1nnc(-c2cccc(Oc3ccc(C(F)(F)F)cn3)c2)n1 [Example 19, (R)-3-amino-4-(5-(3-((5-(trifluoromethyl)pyridin-2-yl)oxy)phenyl)-2H-tetrazol-2-yl)butanoic acid] | 3 nM | – | – | 273 nM | –
N[C@H](CC(=O)O)Cn1nnc(-c2ccc(Oc3ccc(C(F)(F)F)cn3)cc2)n1 [Example 20, (R)-3-amino-4-(5-(4-((5-(trifluoromethyl)pyridin-2-yl)oxy)phenyl)-2H-tetrazol-2-yl)butanoic acid] | 5 nM | 270 nM | – | – | –
N[C@H](CC(=O)O)Cn1nnc(-c2cccc(Oc3nc4ccccc4s3)c2)n1 [Example 21, (R)-3-amino-4-(5-(3-(benzo[d]thiazol-2-yloxy)phenyl)-2H-tetrazol-2-yl)butanoic acid] | 5 nM | 209 nM | – | – | –
N[C@H](CC(=O)O)Cn1nnc(-c2cccc(Oc3cc(F)cc(F)c3)c2)n1 [Example 22, (R)-3-amino-4-(5-(3-(3,5-difluorophenoxy)phenyl)-2H-tetrazol-2-yl)butanoic acid] | 8 nM | 294 nM | – | – | –
Cc1ccc(Oc2ccc(-c3nnn(C[C@@H](N)CC(=O)O)n3)cc2)cc1 [Example 23, (S)-3-amino-4-(5-(4-(p-tolyloxy)phenyl)-2H-tetrazol-2-yl)butanoic acid] | ≤ 2 nM | 173 nM | 44% | – | –
N[C@@H](CC(=O)O)Cc1nnc(-c2ccc(Oc3ccc(F)cc3)cc2)o1 [Example 24, (R)-3-amino-4-(5-(4-(4-fluorophenoxy)phenyl)-1,3,4-oxadiazol-2-yl)butanoic acid] | 3 nM | 282 nM | – | – | –
N[C@@H](CC(=O)O)Cc1nnc(-c2ccc(Oc3ccc(Cl)cc3)cc2)o1 [Example 25, (R)-3-amino-4-(5-(4-(4-chlorophenoxy)phenyl)-1,3,4-oxadiazol-2-yl)butanoic acid] | 3 nM | 382 nM | – | – | –
N[C@@H](CC(=O)O)Cc1nc(-c2ccc(Oc3ccc(Cl)cc3)cc2)no1 [Example 26, (R)-3-amino-4-(3-(4-(4-chlorophenoxy)phenyl)-1,2,4-oxadiazol-5-yl)butanoic acid] | 3 nM | 126 nM | – | – | –
NC(=O)C[C@H](N)Cc1nc(-c2ccc(Oc3ccc(Cl)cc3)cc2)no1 [Example 27, (R)-3-amino-4-(3-(4-(4-chlorophenoxy)phenyl)-1,2,4-oxadiazol-5-yl)butanamide] | 10 nM | 218 nM | – | – | –
N[C@@H](CC(=O)O)Cn1cc(-c2ccc(Oc3ccc(Cl)cc3)cc2)cn1 [Example 28, (S)-3-amino-4-(4-(4-(4-chlorophenoxy)phenyl)-1H-pyrazol-1-yl)butanoic acid] | 3 nM | 728 nM | – | – | –
